The values that follow come from ChEMBL document CHEMBL5528029, “Design, synthesis, and biological evaluation of novel discoidin domain receptor inhibitors for the treatment of lung adenocarcinoma and pulmonary fibrosis” (Eur J Med Chem, 2024).

The target of assay [1] is T1, Discoidin domain-containing receptor 2 (Homo sapiens) (UniProt Q16832).
T1 sequence (whole entry): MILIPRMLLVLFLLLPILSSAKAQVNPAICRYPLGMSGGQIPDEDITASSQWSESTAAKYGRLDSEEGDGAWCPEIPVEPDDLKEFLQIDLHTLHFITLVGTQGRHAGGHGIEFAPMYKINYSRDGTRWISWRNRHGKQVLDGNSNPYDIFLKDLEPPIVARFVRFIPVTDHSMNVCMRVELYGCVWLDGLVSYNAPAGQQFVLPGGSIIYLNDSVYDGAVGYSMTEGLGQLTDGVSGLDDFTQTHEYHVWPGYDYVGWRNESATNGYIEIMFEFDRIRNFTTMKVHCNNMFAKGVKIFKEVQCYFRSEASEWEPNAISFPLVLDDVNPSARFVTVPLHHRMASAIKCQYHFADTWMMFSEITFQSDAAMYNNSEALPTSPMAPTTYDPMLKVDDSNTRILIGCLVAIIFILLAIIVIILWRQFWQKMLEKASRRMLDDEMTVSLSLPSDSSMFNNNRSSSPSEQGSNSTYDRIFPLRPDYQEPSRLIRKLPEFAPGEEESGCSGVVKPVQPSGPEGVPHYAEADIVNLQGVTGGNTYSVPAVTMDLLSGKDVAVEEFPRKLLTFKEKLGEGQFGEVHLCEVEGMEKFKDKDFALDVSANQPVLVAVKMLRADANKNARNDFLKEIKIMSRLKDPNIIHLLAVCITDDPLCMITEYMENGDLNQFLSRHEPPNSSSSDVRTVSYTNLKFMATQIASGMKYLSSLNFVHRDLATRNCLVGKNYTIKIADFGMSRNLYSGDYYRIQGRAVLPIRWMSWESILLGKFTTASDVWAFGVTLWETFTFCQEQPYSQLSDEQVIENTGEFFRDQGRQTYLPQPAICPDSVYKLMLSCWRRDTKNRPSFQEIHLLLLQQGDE
In words: Inhibition of DDR2 (unknown origin) assessed as remaining activity at 1 uM using fluorescein-poly GAT as substrate in presence of ATP by TR-FRET assay relative to control. A general note: TR-FRET usually uses a lanthanide donor and a delayed reading to cut background.

Assay [2] addresses High affinity nerve growth factor receptor (Homo sapiens) (UniProt P04629). Briefly: Inhibition of TRK-A (unknown origin) assessed as remaining activity at 1 uM using fluorescein-poly GAT as substrate in presence of ATP by TR-FRET assay relative to control.
For assay [3], the target named is NT-3 growth factor receptor (Homo sapiens) (UniProt Q16288). Briefly: Inhibition of TRK-C (unknown origin) assessed as remaining activity at 1 uM using fluorescein-poly GAT as substrate in presence of ATP by TR-FRET assay relative to control.
NT-3 growth factor receptor (Homo sapiens), sequence (Q16288 32-839 limits assumed): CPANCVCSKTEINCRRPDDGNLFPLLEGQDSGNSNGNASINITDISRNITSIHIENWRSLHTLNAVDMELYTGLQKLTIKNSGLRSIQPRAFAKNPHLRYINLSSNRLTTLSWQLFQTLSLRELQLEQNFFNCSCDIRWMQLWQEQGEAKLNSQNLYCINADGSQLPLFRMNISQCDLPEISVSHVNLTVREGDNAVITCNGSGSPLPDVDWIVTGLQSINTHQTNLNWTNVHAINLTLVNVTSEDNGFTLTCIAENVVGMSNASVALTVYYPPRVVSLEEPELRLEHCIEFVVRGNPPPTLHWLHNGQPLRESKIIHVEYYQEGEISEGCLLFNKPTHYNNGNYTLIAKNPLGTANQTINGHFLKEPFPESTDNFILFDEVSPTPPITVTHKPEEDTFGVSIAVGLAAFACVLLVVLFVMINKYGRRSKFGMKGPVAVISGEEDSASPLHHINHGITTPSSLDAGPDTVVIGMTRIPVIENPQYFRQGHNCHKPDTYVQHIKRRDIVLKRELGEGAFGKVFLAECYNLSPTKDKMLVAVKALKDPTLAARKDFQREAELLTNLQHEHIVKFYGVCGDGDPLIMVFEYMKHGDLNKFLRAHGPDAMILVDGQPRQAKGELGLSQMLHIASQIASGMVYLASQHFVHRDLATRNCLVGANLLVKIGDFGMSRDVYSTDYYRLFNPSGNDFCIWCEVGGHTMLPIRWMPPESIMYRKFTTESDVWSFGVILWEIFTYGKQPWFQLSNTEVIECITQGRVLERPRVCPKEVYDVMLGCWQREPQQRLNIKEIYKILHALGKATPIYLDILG
Assay [4] addresses BDNF/NT-3 growth factors receptor (Homo sapiens) (UniProt Q16620). In words: Inhibition of TRK-B (unknown origin) assessed as remaining activity at 1 uM using fluorescein-poly GAT as substrate in presence of ATP by TR-FRET assay relative to control.

BDNF/NT-3 growth factors receptor (Homo sapiens), sequence (Q16620 32-822 limits assumed): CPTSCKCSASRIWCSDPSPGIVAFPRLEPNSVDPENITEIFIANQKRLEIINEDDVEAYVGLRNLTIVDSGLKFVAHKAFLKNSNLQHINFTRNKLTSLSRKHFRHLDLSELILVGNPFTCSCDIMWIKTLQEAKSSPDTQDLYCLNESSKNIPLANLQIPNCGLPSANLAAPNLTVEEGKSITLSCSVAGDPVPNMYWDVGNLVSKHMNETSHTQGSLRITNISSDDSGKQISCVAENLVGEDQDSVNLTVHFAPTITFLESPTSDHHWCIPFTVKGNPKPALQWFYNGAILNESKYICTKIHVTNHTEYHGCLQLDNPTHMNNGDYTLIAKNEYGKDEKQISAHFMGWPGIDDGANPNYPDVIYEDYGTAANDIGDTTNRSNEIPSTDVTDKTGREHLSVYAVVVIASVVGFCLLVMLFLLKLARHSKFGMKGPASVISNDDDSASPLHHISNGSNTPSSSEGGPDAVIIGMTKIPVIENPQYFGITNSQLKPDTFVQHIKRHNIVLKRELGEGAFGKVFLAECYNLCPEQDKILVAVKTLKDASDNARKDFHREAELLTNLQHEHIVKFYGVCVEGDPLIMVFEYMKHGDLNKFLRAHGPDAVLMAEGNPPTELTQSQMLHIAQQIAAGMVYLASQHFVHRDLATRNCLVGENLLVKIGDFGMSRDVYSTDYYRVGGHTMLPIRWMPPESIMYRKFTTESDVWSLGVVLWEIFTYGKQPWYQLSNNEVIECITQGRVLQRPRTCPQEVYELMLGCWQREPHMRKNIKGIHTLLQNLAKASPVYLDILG
High affinity nerve growth factor receptor (Homo sapiens), sequence (P04629 33-796 limits assumed): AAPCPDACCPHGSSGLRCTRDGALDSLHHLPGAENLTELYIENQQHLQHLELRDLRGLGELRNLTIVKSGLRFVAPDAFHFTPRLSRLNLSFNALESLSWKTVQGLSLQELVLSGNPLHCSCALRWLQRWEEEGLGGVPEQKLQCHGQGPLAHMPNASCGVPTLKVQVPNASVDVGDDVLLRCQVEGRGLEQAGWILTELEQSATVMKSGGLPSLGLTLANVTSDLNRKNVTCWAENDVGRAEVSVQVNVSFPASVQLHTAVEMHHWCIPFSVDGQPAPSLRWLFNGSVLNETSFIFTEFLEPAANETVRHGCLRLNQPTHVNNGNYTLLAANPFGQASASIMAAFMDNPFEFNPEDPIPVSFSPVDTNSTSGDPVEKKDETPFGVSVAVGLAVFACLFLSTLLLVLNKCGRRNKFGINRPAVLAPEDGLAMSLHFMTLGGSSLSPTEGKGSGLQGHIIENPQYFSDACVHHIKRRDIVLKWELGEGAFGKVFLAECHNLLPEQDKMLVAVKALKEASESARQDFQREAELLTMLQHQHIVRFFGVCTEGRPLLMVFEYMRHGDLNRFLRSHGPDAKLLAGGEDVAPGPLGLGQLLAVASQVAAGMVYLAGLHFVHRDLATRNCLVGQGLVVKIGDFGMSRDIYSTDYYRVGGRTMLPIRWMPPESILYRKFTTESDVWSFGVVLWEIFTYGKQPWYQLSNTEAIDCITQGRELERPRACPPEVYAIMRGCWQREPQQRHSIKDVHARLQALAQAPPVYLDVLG

Regarding `COc1ccc(NC(=O)NCc2cn(CC(=O)N3CCCC3)c3ccc(OC)cc23)cc1`, the Activity in assay [1] was determined as 91.5%; in assay [2], 113%; in assay [3], 88.1%; in assay [4] it was 102%.

Consider `O=C(NCc1cn(CC(=O)N2CCCC2)c2ccc(F)cc12)Nc1ccccc1Cl`, for which the Activity is 73.8% in assay [1], 78% in assay [2], 68.6% in assay [3] and 81.5% in assay [4].

On to `Cc1ccc(NC(=O)NCc2cn(CC(=O)N3CCN(C)CC3)c3ccc(F)cc23)cc1`, for which the Activity is 78.2% in assay [1], 91.7% in assay [2], 104% in assay [3] and 90.4% in assay [4].

`Cc1ccc(NC(=O)NCc2cn(CC(=O)N3CCOCC3)c3ccc(F)cc23)cc1`: the Activity is 72.4% in assay [1], 114% in assay [2], 111% in assay [3] and 83.8% in assay [4].

As for `Cc1ccc(NC(=O)NCc2cn(CC(=O)N3CCCC3)c3ccc(F)cc23)cc1`, the Activity in assay [1] worked out at 95.4%; in assay [2] it was 101%; in assay [3] it was 91.2%; in assay [4], 99.5%.

On to `COc1ccc2c(c1)c(CNC(=O)Nc1ccc(C)cc1)cn2CC(=O)N1CCN(C)CC1`, for which the Activity in assay [1] was determined as 96.2%; in assay [2] it was 98.7%; in assay [3], 90.9%; in assay [4] it was 108%.

Turning to `COc1ccc(NC(=O)NCc2cn(CC(=O)N3CCCCC3)c3ccc(OC)cc23)cc1`, the Activity is 72.4% in assay [1], 92.1% in assay [2], 92.7% in assay [3] and 87.4% in assay [4].

Turning to `COc1ccc2c(c1)c(CNC(=O)Nc1ccc(C(F)(F)F)cc1)cn2CC(=O)N1CCOCC1`, the Activity in assay [1] is 82.2%; in assay [2], 71.8%; in assay [3], 103%; in assay [4] it was 79%.

As to `COc1ccc(NC(=O)NCc2cn(CC(=O)N3CCN(C)CC3)c3ccc(OC)cc23)cc1`, the Activity in assay [1] turned out to be 93.4%; in assay [2] it was 108%; in assay [3], 94.5%; in assay [4], 108%.

`COc1ccc2c(c1)c(CNC(=O)Nc1ccc(C(F)(F)F)cc1)cn2CC(=O)N1CCCCC1`: the Activity in assay [1] is 73.8%; in assay [2], 91.6%; in assay [3] it was 105%; in assay [4], 74.9%.

Take `O=C(NCc1cn(CC(=O)N2CCCCC2)c2ccc(F)cc12)Nc1ccc(C(F)(F)F)cc1`: the Activity in assay [1] amounted to 70.1%; in assay [2], 87%; in assay [3], 105%; in assay [4], 108%.

As to `O=C(NCc1cn(CC(=O)N2CCCC2)c2ccc(F)cc12)Nc1ccc(C(F)(F)F)cc1`, the Activity was 81.1% in assay [1], 101% in assay [2], 94.3% in assay [3] and 101% in assay [4].

Regarding `COc1ccc2c(c1)c(CNC(=O)Nc1ccccc1Cl)cn2CC(=O)N1CCOCC1`, the Activity was found to be 54.7% in assay [1], 91.7% in assay [2], 86% in assay [3] and 97.2% in assay [4].

`O=C(NCc1cn(CC(=O)N2CCCCC2)c2ccc(F)cc12)Nc1ccccc1Cl`: the Activity came out at 48% in assay [1], 90.3% in assay [2], 84.2% in assay [3] and 75.7% in assay [4].

As for `COc1ccc2c(c1)c(CNC(=O)Nc1ccc(C)cc1)cn2CC(=O)N1CCCCC1`, the Activity in assay [1] came to 83.2%; in assay [2], 82.3%; in assay [3] it was 92.5%; in assay [4] it was 85.7%.

For `COc1ccc2c(c1)c(CNC(=O)Nc1ccc(F)cc1F)cn2CC(=O)N1CCCCC1`, the Activity in assay [1] was 74.8%; in assay [2] it was 84.7%; in assay [3], 68.6%; in assay [4], 70.8%.

As to `COc1ccc(NC(=O)NCc2cn(CC(=O)N3CCOCC3)c3ccc(OC)cc23)cc1`, the Activity in assay [1] turned out to be 95.3%; in assay [2] it was 98.9%; in assay [3] it was 89%; in assay [4] it was 92.5%.
